One data set addresses Human DPP4 (Homo sapiens (Human), UniProt P27487). The data set is described as follows: DPP4 activity assay (Sigma-Aldrich MAK088 kit). It is filed as biochemical. The settings on record: Table 4; read-out: DPPIV IC50. As to the method: DPP4 activity assay. Human DPP4 activity assay data were obtained using a DPP4 Activity Assay Kit (Sigma-Aldrich, MAK088) according to the manufacturer's instructions. Briefly, 10 μL of DPP4 Assay Buffer was transferred per well in low volume 384-well plates before transferring 10 μL of diluted compound dissolved in DPP4 assay buffer. 5 μL of Master Reaction Mix containing a fluorescent substrate that becomes fluorescent upon cleavage by the enzyme. Fluorescence intensity measurements were recorded at 1-minute time intervals over the course of 20 minutes using an Envision Multimode Plate Reader (PerkinElmer).

A further data set has as its system Primary human AEC2s. Kind of data set: AEC2 proliferation assay (Ki67 high content imaging). It is filed as cell-based. As to the method:
To identify small molecules capable of proliferating AEC2s, as disclosed herein, we first established a culture system with primary human small airway epithelial cells (SAECs) from a commercial source.
AEC2 proliferation assay. Primary human AEC2s were plated at a density of 1,500 cells per well in black 384-well plates (Greiner) coated with 10 ug/mL. Laminin (Life Technologies) in 50 μL of Small Airway Epithelial Cell Growth Medium (Lonza) without EGF, retinoic acid and with 5% BPE. 100 nL of compound dissolved in DMSO was then delivered using a Biomek FX instrument (Beckman Coulter) fitted with a pintool head (V&P Scientific).

Data set [1] deals with bleomycin-induced lung fibrosis. Kind of data set: Bleomycin-induced lung fibrosis model. To be noted: 0.5 mg/kg IT once every four days, versus vehicle. It is filed as in vivo, mouse. Here is the method: Experimental Methods of Bleomycin Model Bleomycin (Hospira) was used to induce lung fibrosis in mice. Body weight matched (24 gram˜28 gram) male C57BL/6J mice at 10-12 weeks of age were selected to use in bleomycin model. For orally delivered DPP4 inhibitors. compounds were dissolved in PBS resulting in clear solution. […] For intratracheally delivered DPP4 inhibitors, compounds were dissolved in PBS resulting in clear solution. […] 0.5 U/kg Bleomycin or PBS in sham group was intratracheally injection into mice lung at day 0. […] All animals were sacrificed at day 20 after bleomycin injection. Bronchoalveolar lavage fluid (BALF) was retrieved using standard method. 1 ml 4% formalin was used to inflate the lung, which was subsequently fixed in 4% formalin for 24 hours and preserved in 70% EtOH until histological process. For readouts, body weight was measured every day; total protein content in BALF was quantified using BCA assay; pulmonary fibrosis was assessed using Masson's trichrome staining.

Data set [2] is described as follows: IT pharmacokinetics of dutogliptin (1) and dutogliptin boronate (15). It is filed as in vivo, mouse. To be noted: for Plasma concentration of dutogliptin, individual animals / Bronchoalveolar lavage fluids concentration of dutogliptin, individual animals / Lung concentration of dutogliptin, individual animals: mice, 1.8 mg/kg IT dutogliptin boronate (cpd 15). As to the method:
Like other […]. Dutogliptin (1) dosed IT in mice with PBS solution quickly cleared in lung (<24h. Table 8A). […] The parent drug dutogliptin was detected in plasma and lung. […] The drug was retained in the lung for over 48 h. The data clearly illustrated the unexpected lung retention ability of boronate prodrug 15.

A further data set deals with alveolar epithelium. The settings on record: Stone et al., Diab et al.; cited from earlier work.
For data set [3], the system named is human pulmonary fibroblasts. The data set is described as follows: Pulmonary fibroblast counter-assay. It is filed as cell-based. The settings on record: at concentrations that promoted AEC2 proliferation.
[4] abbreviates: Homo sapiens, Table 4, promotion of AEC2 proliferation, read-out: AEC2 EC50.
[5] abbreviates: Homo sapiens, Table 5, read-out: AEC2 proliferation.

Entries after “also recorded” stand apart in the source; their conditions may differ. Where two headings read alike, the source gives them in different places.

One may read the IC50 as the concentration needed to halve the response being measured.

Human DPP4, sequence (P27487 whole entry): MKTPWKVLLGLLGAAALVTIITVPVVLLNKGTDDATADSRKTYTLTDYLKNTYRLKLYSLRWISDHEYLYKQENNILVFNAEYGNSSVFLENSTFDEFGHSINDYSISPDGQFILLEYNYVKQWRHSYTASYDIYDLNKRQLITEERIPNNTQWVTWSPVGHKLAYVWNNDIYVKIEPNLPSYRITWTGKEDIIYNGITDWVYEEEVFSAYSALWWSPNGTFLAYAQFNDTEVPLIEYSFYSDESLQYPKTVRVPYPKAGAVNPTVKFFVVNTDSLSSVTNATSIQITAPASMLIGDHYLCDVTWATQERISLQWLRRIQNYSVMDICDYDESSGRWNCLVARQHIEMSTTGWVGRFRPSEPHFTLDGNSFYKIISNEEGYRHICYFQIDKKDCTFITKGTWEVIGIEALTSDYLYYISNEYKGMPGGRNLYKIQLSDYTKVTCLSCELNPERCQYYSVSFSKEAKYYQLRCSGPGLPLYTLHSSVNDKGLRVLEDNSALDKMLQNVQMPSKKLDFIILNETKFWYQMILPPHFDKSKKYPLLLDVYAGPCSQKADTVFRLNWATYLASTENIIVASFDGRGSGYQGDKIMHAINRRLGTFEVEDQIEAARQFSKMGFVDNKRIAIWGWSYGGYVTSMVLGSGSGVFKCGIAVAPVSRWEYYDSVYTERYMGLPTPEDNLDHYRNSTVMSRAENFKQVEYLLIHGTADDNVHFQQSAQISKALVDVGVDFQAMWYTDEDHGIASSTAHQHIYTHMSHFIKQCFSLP

Take `CCOC(=O)C12CCC(NCC(=O)N3C[C@@H](F)C[C@H]3C#N)(CC1)CC2` [Cpd 2, ethyl 4-((2-((2S,4S)-2-cyano-4-fluoropyrrolidin-1-yl)-2-oxoethyl)amino)bicyclo[2.2.2]octane-1-carboxylate]: the IC50 on Human DPP4 was found to be 0.0022 µM.

As to `N#C[C@@H]1CCCN1C(=O)CNC12CC3C[C@@H](C1)C[C@@](O)(C3)C2` [Cpd 3, (2S)-1-(((1S,3R,5S)-3-hydroxyadamantan-1-yl)glycyl)pyrrolidine-2-carbonitrile], the EC50 in the data set with Primary human AEC2s (setting [4]) and with Primary human AEC2s (setting [5]) was 0.16 µM each time.

Take `Cn1c(=O)cc(N2CCC[C@@H](N)C2)n(Cc2ccccc2C#N)c1=O` [Cpd 7, (R)-2-((6-(3-aminopiperidin-1-yl)-3-methyl-2,4-dioxo-3,4-dihydropyrimidin-1(2H)-yl)methyl)benzonitrile]: the EC50 with Primary human AEC2s (setting [4]) and with Primary human AEC2s (setting [5]) was 0.11 µM throughout.

In the case of `CS(=O)(=O)n1cc2c(n1)CN([C@H]1CO[C@H](c3cc(F)ccc3F)[C@@H](N)C1)C2` [Cpd 9, (2R,3S,5R)-2-(2,5-difluorophenyl)-5-(2-(methylsulfonyl)-2,6-dihydropyrrolo[3,4-c]pyrazol-5(4H)-yl)tetrahydro-2H-pyran-3-amine], the EC50 in the data set on Primary human AEC2s (setting [4]) and with Primary human AEC2s (setting [5]) was 0.043 µM in each case.

Take `Cn1c(=O)cc(N2CCC[C@@H](N)C2)n(Cc2cc(F)ccc2C#N)c1=O` [Cpd 10, (R)-2-((6-(3-aminopiperidin-1-yl)-3-methyl-2,4-dioxo-3,4-dihydropyrimidin-1(2H)-yl)methyl)-4-fluorobenzonitrile]: the EC50 in the data set with Primary human AEC2s (setting [4]) and in the data set on Primary human AEC2s (setting [5]) was 0.067 µM in each case.

On to `N[C@@H](CC(=O)N1CCc2c(nc(C(F)(F)F)nc2C(F)(F)F)C1)CN1CC(F)(F)CCC1=O` [Cpd 11, (S)-1-(2-amino-4-(2,4-bis(trifluoromethyl)-5,8-dihydropyrido[3,4-d]pyrimidin-7(6H)-yl)-4-oxobutyl)-5,5-difluoropiperidin-2-one], for which the EC50 in the data set on Primary human AEC2s (setting [4]) and in the data set on Primary human AEC2s (setting [5]) was 0.22 µM throughout.

As to `Cc1cc2ncc(C(=O)NCC(C)(C)NCC(=O)N3CCC[C@H]3C#N)cn2n1` [Cpd 12, (S)-N-(2-((2-(2-cyanopyrrolidin-1-yl)-2-oxoethyl)amino)-2-methylpropyl)-2-methylpyrazolo[1,5-a]pyrimidine-6-carboxamide], the EC50 with Primary human AEC2s (setting [4]) and with Primary human AEC2s (setting [5]) was 0.11 µM in each case.

As to `CC1(C)[C@@H]2C[C@H]3OB([C@@H]4CCCN4C(=O)CN[C@@H]4CCNC4)O[C@@]3(C)[C@H]1C2` [Cpd 15, 2-(((R)-pyrrolidin-3-yl)amino)-1-((R)-2-((3aS,4S,6S,7aR)-3a,5,5-trimethylhexahydro-4,6-methanobenzo[d][1,3,2]dioxaborol-2-yl)pyrrolidin-1-yl)ethan-1-one], the BALF protein level entry in data set [1] is recorded as “reduced”. In data set [2] (IT dosing, data not shown), the “plasma and lung levels of the boronate itself” value is “very low and absent after 0.25 h”. Further, the “Plasma concentration of dutogliptin, individual animals” value in data set [2] (7.00 h), in data set [2] (24.0 h), in data set [2] (48.0 h), in data set [2] (96.0 h) and in data set [2] (168 h) was “BQL” in each case. Moreover, the “Bronchoalveolar lavage fluids concentration of dutogliptin, individual animals” value in data set [2] (48.0 h), in data set [2] (96.0 h) and in data set [2] (168 h) was “BQL” each time. For the same compound, the “Lung concentration of dutogliptin, individual animals” value in data set [2] (48.0 h), in data set [2] (96.0 h) and in data set [2] (168 h) was “BQL” throughout. Further, the “conversion of the boronate to the active drug” value in data set [2] (mouse IT pharmacokinetic study) is “convert to the active drug dutogliptin in both plasma and lung”. Moreover, in data set [2] (mouse, in vivo), the “lung exposure of dutogliptin after IT boronate versus IT dutogliptin itself” value was “significantly higher; also recorded: much higher”.

In the case of `N#C[C@@H]1C[C@H](F)CN1C(=O)CNC12CCC(C(=O)O)(CC1)CC2` [Cpd 16, 4-((2-((2S,4S)-2-cyano-4-fluoropyrrolidin-1-yl)-2-oxoethyl)amino)bicyclo[2.2.2]octane-1-carboxylic acid], the IC50 on Human DPP4 was found to be 0.0012 µM.

`COC(=O)C12CCC(NCC(=O)N3C[C@@H](F)C[C@H]3C#N)(CC1)CC2` [Cpd 17, methyl 4-((2-((2S,4S)-2-cyano-4-fluoropyrrolidin-1-yl)-2-oxoethyl)amino)bicyclo[2.2.2]octane-1-carboxylate]: the IC50 on Human DPP4 worked out at 0.001 µM.

Regarding `N#C[C@@H]1CCCN1C(=O)CNC12CC3C[C@H](CC(N)(C3)C1)C2` [Cpd 18, (2S)-1-(((1S,3R,5R)-3-aminoadamantan-1-yl)glycyl)pyrrolidine-2-carbonitrile], the IC50 at Human DPP4 amounted to 0.038 µM.

Consider `CC#CCn1c(N2CCC[C@@H](N)C2)cc(=O)n(Cc2cccc(C(=O)OC)c2)c1=O` [Cpd 25, methyl (R)-3-((4-(3-aminopiperidin-1-yl)-3-(but-2-yn-1-yl)-2,6-dioxo-3,6-dihydropyrimidin-1(2H)-yl)methyl)benzoate], for which, at Human DPP4, the IC50 stood at 0.006 µM.

Regarding `N[C@@H](CC(=O)N1CCn2c(C(F)(F)F)nc(C(=O)O)c2C1)Cc1cc(F)c(F)cc1F` [Cpd 26, (R)-7-(3-amino-4-(2,4,5-trifluorophenyl)butanoyl)-3-(trifluoromethyl)-5,6,7,8-tetrahydroimidazo[1,5-a]pyrazine-1-carboxylic acid], on Human DPP4, the IC50 amounted to 0.0008 µM.

Take `CCCCCCCCc1ccc(CCC(N)(CO)CO)cc1` [FTY-720]: the “AEC2 proliferation, result in words” value in the data set with Primary human AEC2s is given as “active”. For the same compound, the “apoptosis and inflammatory cytokine release in alveolar epithelium” value in the data set on alveolar epithelium is “inhibited apoptosis and inflammatory cytokine release”.

For the compound `N#Cc1ccc(NCCNCC(=O)N2CCC[C@H]2C#N)nc1` [NVP-728], the “total number, percent Ki67 positivity, or myofibroblast differentiation status of pulmonary fibroblasts” value in data set [3] is reported as “did not increase”. The EC50 with Primary human AEC2s (FIG. 1B, 1C, read-out: EC50, AEC2 proliferation (ReFRAME screen hits)) is ~0.5 µM.

Turning to `CC(C)Oc1ccc(-c2nc(-c3cccc4c3CC[C@@H]4NCCO)no2)cc1C#N` [Ozanimod], the “AEC2 proliferation, result in words” value in the data set with Primary human AEC2s is “active”.

With `FC(F)(F)c1cccc(-c2noc(-c3cc(-c4ccccc4)c(C(F)(F)F)s3)n2)c1` [SEW-2871], the “AEC2 proliferation, result in words” value in the data set with Primary human AEC2s was “active”. In the data set on alveolar epithelium, the “apoptosis and inflammatory cytokine release in alveolar epithelium” value is “inhibited apoptosis and inflammatory cytokine release”.

Regarding `CCc1cc(/C(C)=N/OCc2ccc(C3CCCCC3)c(C(F)(F)F)c2)ccc1CN1CC(C(=O)O)C1` [siponimod], in data set [3], the “total number, percent Ki67 positivity, or myofibroblast differentiation status of pulmonary fibroblasts” value is listed as “did not increase”. The EC50 with Primary human AEC2s (Homo sapiens, FIG. 1B, 1C, read-out: EC50, AEC2 proliferation (ReFRAME screen hits)) was ~0.1 µM.

The values above are taken from patent US20240115577A1, “SMALL MOLECULE REGULATORS OF ALVEOLAR TYPE 2 CELL PROLIFERATION FOR THE TREATMENT OF PULMONARY DISEASES” (THE SCRIPPS RESEARCH INSTITUTE, priority 2021, published 2024).
